In brackets after ≈: the same amount, converted by molar mass.
Columns and labels:
L929 [1] = assay: Cytotoxicity against mouse L929 cells after 24 hrs by MTT assay; type: cell-based; conditions: L929, 24 h
[2] = Critical micellar concentration of the compound in pyrene/acetone solution ultrasonicated for 30 mins followed by incubation in water bath at 60 degC for 40 mins and subsequent incubation at 40 degC for 12 hrs by fluorescence assay; type: physicochemical; conditions: buffer
A549 [3] = assay: Cytotoxicity against human A549 cells after 24 hrs by MTT assay; type: cell-based; conditions: A549, 24 h
[4] = Cytotoxicity against mouse L929 cells assessed as cell viability at 0.05 mM after 24 hrs by MTT assay relative to control; type: cell-based; conditions: read-out: Activity
[5] = Cytotoxicity against human A549 cells assessed as cell viability at 0.05 mM after 24 hrs by MTT assay relative to control; type: cell-based; conditions: read-out: Activity
[6] = Solubility of the compound in pH 7.4 PBS buffer by ultraviolet spectroscopic method; type: physicochemical
[7] = Prodrug activation in Sprague-Dawley rat plasma assessed as propofol release at 4 mg after 1 mins by HPLC analysis; type: cell-free
Rattus norvegicus [8] = assay: Anesthetic activity in Sprague-Dawley rat assessed as anesthetic duration time at 0.073 mmol/kg, iv for 10 secs; type: functional
Rattus norvegicus [9] = assay: Anesthetic activity in Sprague-Dawley rat assessed as onset time for loss of righting reflex at 0.073 mmol/kg, iv for 10 secs; type: functional
[10] = Solubility of the compound in pH 7.4 PBS buffer containing 60% methanol by ultraviolet spectroscopic method; type: physicochemical
[11] = Prodrug activation in Sprague-Dawley rat plasma assessed as propofol release at 4 mg after 24 hrs by HPLC analysis; type: cell-free
Rattus norvegicus [12] = assay: Toxicity in Sprague-Dawley rat assessed as death at 0.073 mmol/kg, iv for 10 secs; type: organism-based; conditions: in vivo, 10 s
L929 [13] = assay: Cytotoxicity against mouse L929 cells assessed as reduction in cell viability up to 4 mM after 24 hrs by MTT assay; type: cell-based; conditions: l929, 24 h
A549 [14] = assay: Cytotoxicity against human A549 cells assessed as reduction in cell viability up to 4 mM after 24 hrs by MTT assay; type: cell-based; conditions: a549, 24 h
[15] = Prodrug activation in Sprague-Dawley rat plasma assessed as propofol release at 4 mg after 5 mins by HPLC analysis; type: cell-free
[16] = Prodrug activation in Sprague-Dawley rat plasma assessed as propofol release at 4 mg after 20 mins by HPLC analysis; type: cell-free

SMILES	solubility [6]	EC50 (L929 [1])	EC50 (A549 [3])	viability at 24 h, 50 µM [4]	viability at 24 h, 50 µM [5]	other results
COCCOCCOCCOCCOCCOCCOCCOCC(=O)Oc1c(C(C)C)cccc1C(C)C	> 216000 µg/mL	120 µM	520 µM	> 90%	> 90%	CMC [2]: 1.3 mM; Drug metabolism [7]: Metabolite_Detected; Time (Rattus norvegicus [8]): 10.5 min; Time (Rattus norvegicus [9]): 0 s
COCCOCCOC(=O)Oc1c(C(C)C)cccc1C(C)C		4600 µM	> 10000 µM	> 90%	> 90%	solubility [10]: 70 µg/mL (≈ 216 µM)
CC(C)c1cccc(C(C)C)c1O [PROPOFOL]		4730 µM	9550 µM			Time (Rattus norvegicus [8]): 10.3 min; Time (Rattus norvegicus [9]): 0 s
COCCOCCOCCOCCOCCOCCOCCOCCOCCOCCOCOc1c(C(C)C)cccc1C(C)C	> 289000 µg/mL	210 µM	610 µM	> 90%	> 90%	Drug metabolism [11]: Metabolite_Notdetected; Activity (Rattus norvegicus [12]): Toxic
COCCOCCOCCO						Activity (L929 [13]): Non-Toxic; Activity (A549 [14]): Non-Toxic
COCCOCCOCCOCCOCCOCCOCOc1c(C(C)C)cccc1C(C)C	1250 µg/mL (≈ 2570 µM)	140 µM	510 µM	> 90%	> 90%	
COCCOCCOCCOCCOCCOCCOCCOCCOCCOCCO						Activity (L929 [13]): Non-Toxic; Activity (A549 [14]): Non-Toxic
COCCOCCOCCOCCOCCOCCOCCOCOc1c(C(C)C)cccc1C(C)C	55400 µg/mL (≈ 104000 µM)	130 µM	500 µM	> 90%	> 90%	CMC [2]: 0.6 mM; Activity (Rattus norvegicus [12]): Toxic
COCCOCCOCCOCCOCCOCCOCCOCCOCCOCCOCC(=O)Oc1c(C(C)C)cccc1C(C)C	> 371000 µg/mL	490 µM	600 µM	> 90%	> 90%	Drug metabolism [15]: Metabolite_Detected; Drug metabolism [11]: Metabolite_Detected; Time (Rattus norvegicus [8]): 8.5 min; Time (Rattus norvegicus [9]): 0 s
COCCOCCOCOc1c(C(C)C)cccc1C(C)C		4870 µM	> 10000 µM	> 90%	> 90%	solubility [10]: 200 µg/mL (≈ 644 µM)
COCCOCCOCC(=O)Oc1c(C(C)C)cccc1C(C)C		1410 µM	4150 µM	> 90%	> 90%	solubility [10]: 420 µg/mL (≈ 1240 µM)
COCCOCCOCCOCCOCCOCCOCCOCCOCCOCCOC(=O)Oc1c(C(C)C)cccc1C(C)C	> 315000 µg/mL	420 µM	400 µM	> 90%	> 90%	Time (Rattus norvegicus [8]): 5.6 min; Time (Rattus norvegicus [9]): 0 s; Drug metabolism [16]: Metabolite_Detected

The next lines start with results.

solubility [6]	SMILES	EC50 (L929 [1])	EC50 (A549 [3])	viability at 24 h, 50 µM [4]	viability at 24 h, 50 µM [5]	other results
2730 µg/mL (≈ 5010 µM)	COCCOCCOCCOCCOCCOCCOCCOC(=O)Oc1c(C(C)C)cccc1C(C)C	110 µM	500 µM	> 90%	> 90%	CMC [2]: 1.5 mM
990 µg/mL (≈ 2590 µM)	COCCOCCOCCOCC(=O)Oc1c(C(C)C)cccc1C(C)C	650 µM	740 µM	> 90%	> 90%	
280 µg/mL (≈ 790 µM)	COCCOCCOCCOCOc1c(C(C)C)cccc1C(C)C	1170 µM	> 10000 µM	> 90%	> 90%	
380 µg/mL (≈ 921 µM)	COCCOCCOCCOCCOC(=O)Oc1c(C(C)C)cccc1C(C)C	1390 µM	1360 µM	> 90%	> 90%	
1580 µg/mL (≈ 3700 µM)	COCCOCCOCCOCCOCC(=O)Oc1c(C(C)C)cccc1C(C)C	440 µM	630 µM	> 90%	> 90%	
570 µg/mL (≈ 1430 µM)	COCCOCCOCCOCCOCOc1c(C(C)C)cccc1C(C)C	900 µM	1730 µM	> 90%	> 90%	
830 µg/mL (≈ 1660 µM)	COCCOCCOCCOCCOCCOCCOC(=O)Oc1c(C(C)C)cccc1C(C)C	510 µM	730 µM	> 90%	> 90%	
2020 µg/mL (≈ 3920 µM)	COCCOCCOCCOCCOCCOCCOCC(=O)Oc1c(C(C)C)cccc1C(C)C	110 µM	520 µM	> 90%	> 90%	
190 µg/mL (≈ 516 µM)	COCCOCCOCCOC(=O)Oc1c(C(C)C)cccc1C(C)C	2290 µM	2130 µM	> 90%	> 90%	
